Experimental data reported in patent publication US20210255193A1, “LYSINE REACTIVE PROBES AND USES THEREOF” (The Scripps Research Institute, priority 2017, published 2021).

Columns and labels:
Assay in all cases: competitive isoTOP-ABPP
Assay type in all cases: binding
[1] = biological target: T1, DCTN2 Dynactin subunit 2 (Homo sapiens, UniProt Q13561); settings: 50 uM, 231 sol, in vitro; for R value (DMSO/fragment) for probe 1 labeling: Q13561_K175
T1 construct: isoTOP-ABPP experiments performed in cell lysates (in vitro); endogenous in cells; host or cells: soluble proteome of human cancer cell lines (MDA-MB-231, Ramos, Jurkat)
Outline: (§1)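 Fragments at 50 μM (activated esters) or 100 μM (guanidinylating agents) were incubated with 0.5 ml lysate before probe labeling. After 0.1 mM STP-alkyne for 1 h, samples were clicked to isotopically distinct TEV tags, and R taken as DMSO-over-compound MS1 peak-area ratio.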

[2] = biological target: T2, NAA25 N-alpha-acetyltransferase 25, NatB auxiliary subunit (Homo sapiens, UniProt Q14CX7); settings: 50 uM, 231 sol, in vitro; for R value (DMSO/fragment) for probe 1 labeling: Q14CX7_K575
T2 construct: isoTOP-ABPP experiments performed in cell lysates (in vitro); endogenous in cells; host or cells: soluble proteome of human cancer cell lines (MDA-MB-231; Ramos and Jurkat also prepared)
Outline: as §1

[3] = biological target: T3, GOLGB1 Golgin subfamily B member 1 (Homo sapiens, UniProt Q14789); settings: 50 uM, 231 sol, in vitro; for R value (DMSO/fragment) for probe 1 labeling: Q14789_K103
T3 construct: isoTOP-ABPP experiments performed in cell lysates (in vitro); endogenous in cells; host or cells: soluble proteome of human cancer cell lines (MDA-MB-231, Ramos, Jurkat)
Outline: as §1

[4] = biological target: T4, MAP2K3 Dual specificity mitogen-activated protein kinase (Homo sapiens, UniProt P46734); settings: 50 uM, 231 sol, in vitro; for R value (DMSO/fragment) for probe 1 labeling: P46734_K93
T4 construct: isoTOP-ABPP experiments performed in cell lysates (in vitro); endogenous in cells; host or cells: soluble proteome of human cancer cell lines (MDA-MB-231; Ramos and Jurkat also prepared)
T4 sequence (P46734 1-347): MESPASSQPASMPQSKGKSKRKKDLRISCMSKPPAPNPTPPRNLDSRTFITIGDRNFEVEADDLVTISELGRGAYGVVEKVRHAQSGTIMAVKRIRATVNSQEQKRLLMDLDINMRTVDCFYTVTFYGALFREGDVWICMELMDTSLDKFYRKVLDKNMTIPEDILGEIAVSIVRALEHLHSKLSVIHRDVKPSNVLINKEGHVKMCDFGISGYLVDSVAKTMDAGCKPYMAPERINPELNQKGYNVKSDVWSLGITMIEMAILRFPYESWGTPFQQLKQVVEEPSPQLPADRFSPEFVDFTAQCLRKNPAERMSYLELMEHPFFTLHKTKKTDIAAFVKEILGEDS
Outline: as §1

[5] = biological target: T5, GSTT2B Glutathione S-transferase theta-2B (Homo sapiens, UniProt P0CG30); settings: 50 uM, 231 sol, in vitro; for R value (DMSO/fragment) for probe 1 labeling: P0CG30_K53
T5 construct: isoTOP-ABPP experiments performed in cell lysates (in vitro); endogenous in cells; host or cells: MDA-MB-231 soluble lysate
T5 sequence (P0CG30 1-244): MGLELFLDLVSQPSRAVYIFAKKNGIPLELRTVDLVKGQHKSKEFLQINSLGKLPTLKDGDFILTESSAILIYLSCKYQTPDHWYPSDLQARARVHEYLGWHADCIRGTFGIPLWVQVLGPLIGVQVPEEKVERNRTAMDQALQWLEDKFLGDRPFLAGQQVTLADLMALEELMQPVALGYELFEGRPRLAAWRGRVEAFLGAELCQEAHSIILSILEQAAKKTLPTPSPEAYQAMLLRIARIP
Outline: as §1

[6] = biological target: T6, TRMT10C Mitochondrial ribonuclease P protein 1 (Homo sapiens, UniProt Q7L0Y3); settings: 50 uM, 231 sol, in vitro; for R value (DMSO/fragment) for probe 1 labeling: Q7L0Y3_K325
T6 construct: isoTOP-ABPP experiments performed in cell lysates (in vitro); endogenous in cells; host or cells: soluble proteome of human cancer cell lines (MDA-MB-231; Ramos and Jurkat also prepared)
T6 sequence (Q7L0Y3 40-403): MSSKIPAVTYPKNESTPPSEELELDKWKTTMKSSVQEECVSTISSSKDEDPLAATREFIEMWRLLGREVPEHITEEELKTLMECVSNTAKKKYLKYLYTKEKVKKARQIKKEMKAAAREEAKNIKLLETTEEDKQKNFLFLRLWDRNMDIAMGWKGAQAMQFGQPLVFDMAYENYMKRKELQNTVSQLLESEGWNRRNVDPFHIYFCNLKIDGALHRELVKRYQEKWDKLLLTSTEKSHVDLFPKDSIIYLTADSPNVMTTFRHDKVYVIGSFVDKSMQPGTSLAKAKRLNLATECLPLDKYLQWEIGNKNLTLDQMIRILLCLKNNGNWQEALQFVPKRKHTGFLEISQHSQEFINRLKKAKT
Outline: as §1

T3 sequence (Q14789 whole entry, the tested form may be a part): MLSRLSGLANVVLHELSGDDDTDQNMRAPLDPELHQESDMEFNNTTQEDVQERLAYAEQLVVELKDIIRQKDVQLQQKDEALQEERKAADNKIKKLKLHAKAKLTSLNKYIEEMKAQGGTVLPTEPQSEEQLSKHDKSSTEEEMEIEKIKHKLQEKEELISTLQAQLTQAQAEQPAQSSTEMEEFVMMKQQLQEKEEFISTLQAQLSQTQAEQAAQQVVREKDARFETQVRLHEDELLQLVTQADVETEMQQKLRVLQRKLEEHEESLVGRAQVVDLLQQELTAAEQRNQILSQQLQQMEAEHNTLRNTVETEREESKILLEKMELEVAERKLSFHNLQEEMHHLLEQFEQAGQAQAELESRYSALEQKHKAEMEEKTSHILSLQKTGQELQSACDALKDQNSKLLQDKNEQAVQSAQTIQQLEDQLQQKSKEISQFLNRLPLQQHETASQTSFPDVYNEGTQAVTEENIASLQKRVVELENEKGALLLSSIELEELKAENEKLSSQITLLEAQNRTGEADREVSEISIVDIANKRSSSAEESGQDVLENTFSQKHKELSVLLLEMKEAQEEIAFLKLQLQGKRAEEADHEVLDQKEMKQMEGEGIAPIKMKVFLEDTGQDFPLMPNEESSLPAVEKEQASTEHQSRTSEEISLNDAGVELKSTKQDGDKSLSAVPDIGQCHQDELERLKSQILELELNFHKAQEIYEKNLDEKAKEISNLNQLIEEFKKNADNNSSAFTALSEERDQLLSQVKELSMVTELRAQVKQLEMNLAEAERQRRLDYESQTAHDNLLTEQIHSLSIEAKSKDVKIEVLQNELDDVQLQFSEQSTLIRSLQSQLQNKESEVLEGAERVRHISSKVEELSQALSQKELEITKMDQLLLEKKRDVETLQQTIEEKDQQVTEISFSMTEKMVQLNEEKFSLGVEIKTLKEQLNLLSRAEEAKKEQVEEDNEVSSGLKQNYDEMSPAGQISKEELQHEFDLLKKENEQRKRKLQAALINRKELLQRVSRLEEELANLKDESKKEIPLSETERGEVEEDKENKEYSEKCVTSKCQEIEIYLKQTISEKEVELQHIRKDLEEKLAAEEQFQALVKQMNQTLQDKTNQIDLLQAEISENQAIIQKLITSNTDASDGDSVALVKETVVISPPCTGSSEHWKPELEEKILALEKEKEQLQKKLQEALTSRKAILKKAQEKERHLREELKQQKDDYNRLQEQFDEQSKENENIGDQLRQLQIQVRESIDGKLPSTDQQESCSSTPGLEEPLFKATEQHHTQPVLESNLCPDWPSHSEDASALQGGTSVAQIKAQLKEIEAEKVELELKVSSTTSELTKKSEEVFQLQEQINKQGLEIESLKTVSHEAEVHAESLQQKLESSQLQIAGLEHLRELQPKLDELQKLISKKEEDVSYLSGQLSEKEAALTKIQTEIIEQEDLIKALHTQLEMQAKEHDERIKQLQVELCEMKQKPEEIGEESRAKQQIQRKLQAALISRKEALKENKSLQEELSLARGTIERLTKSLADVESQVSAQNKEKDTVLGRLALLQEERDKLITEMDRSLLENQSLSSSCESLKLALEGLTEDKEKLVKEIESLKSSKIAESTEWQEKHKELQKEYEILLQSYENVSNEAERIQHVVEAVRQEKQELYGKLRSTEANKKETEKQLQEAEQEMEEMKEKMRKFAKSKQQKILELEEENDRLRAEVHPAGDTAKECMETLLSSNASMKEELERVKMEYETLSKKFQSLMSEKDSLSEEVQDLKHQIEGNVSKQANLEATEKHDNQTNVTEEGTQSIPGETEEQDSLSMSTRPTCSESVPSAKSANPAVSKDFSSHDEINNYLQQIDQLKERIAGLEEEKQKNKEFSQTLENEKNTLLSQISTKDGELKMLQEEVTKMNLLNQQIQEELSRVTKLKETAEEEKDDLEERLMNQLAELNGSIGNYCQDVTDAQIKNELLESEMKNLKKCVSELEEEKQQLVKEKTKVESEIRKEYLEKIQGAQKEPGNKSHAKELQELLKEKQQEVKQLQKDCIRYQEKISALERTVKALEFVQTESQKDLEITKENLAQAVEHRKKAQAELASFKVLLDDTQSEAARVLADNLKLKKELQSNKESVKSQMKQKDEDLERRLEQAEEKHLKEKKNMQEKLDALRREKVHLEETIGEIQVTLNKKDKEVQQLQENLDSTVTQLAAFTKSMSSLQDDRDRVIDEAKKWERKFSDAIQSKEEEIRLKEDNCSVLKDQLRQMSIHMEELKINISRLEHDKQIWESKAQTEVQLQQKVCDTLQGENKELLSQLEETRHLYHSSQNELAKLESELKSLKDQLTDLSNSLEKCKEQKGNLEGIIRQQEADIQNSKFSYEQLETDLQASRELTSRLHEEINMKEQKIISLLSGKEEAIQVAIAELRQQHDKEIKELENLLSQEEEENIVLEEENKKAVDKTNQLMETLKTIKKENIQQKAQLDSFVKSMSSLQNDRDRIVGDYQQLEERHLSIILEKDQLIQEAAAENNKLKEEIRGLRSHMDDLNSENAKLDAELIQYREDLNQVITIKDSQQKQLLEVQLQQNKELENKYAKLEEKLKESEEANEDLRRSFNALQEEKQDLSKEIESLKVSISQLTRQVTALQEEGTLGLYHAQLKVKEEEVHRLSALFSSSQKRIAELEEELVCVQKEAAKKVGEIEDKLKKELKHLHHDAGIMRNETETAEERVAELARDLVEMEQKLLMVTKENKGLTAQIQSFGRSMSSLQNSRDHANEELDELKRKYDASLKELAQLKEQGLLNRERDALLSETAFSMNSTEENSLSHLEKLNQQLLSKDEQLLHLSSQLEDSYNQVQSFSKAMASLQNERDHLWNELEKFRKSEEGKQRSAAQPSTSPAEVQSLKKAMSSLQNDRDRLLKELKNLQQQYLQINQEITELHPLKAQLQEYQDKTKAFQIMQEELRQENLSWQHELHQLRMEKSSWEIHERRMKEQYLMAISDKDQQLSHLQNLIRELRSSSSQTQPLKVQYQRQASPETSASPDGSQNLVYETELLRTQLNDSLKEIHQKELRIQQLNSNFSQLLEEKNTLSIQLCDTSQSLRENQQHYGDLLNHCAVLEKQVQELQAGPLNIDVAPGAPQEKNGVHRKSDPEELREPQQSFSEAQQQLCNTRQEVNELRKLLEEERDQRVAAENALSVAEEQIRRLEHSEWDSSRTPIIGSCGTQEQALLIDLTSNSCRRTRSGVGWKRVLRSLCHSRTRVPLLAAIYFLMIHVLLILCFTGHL
T1 sequence (Q13561 whole entry, the tested form may be a part): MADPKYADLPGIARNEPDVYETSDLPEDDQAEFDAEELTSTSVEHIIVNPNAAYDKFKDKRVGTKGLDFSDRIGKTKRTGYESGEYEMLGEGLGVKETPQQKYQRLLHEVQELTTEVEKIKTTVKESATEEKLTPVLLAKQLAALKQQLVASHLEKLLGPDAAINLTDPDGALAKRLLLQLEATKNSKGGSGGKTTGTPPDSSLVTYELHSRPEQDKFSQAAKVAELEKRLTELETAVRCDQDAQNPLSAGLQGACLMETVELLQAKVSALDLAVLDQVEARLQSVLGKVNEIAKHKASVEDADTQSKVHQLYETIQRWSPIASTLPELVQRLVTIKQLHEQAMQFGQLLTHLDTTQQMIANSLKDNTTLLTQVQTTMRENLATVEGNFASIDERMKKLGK
T2 sequence (Q14CX7 whole entry, the tested form may be a part): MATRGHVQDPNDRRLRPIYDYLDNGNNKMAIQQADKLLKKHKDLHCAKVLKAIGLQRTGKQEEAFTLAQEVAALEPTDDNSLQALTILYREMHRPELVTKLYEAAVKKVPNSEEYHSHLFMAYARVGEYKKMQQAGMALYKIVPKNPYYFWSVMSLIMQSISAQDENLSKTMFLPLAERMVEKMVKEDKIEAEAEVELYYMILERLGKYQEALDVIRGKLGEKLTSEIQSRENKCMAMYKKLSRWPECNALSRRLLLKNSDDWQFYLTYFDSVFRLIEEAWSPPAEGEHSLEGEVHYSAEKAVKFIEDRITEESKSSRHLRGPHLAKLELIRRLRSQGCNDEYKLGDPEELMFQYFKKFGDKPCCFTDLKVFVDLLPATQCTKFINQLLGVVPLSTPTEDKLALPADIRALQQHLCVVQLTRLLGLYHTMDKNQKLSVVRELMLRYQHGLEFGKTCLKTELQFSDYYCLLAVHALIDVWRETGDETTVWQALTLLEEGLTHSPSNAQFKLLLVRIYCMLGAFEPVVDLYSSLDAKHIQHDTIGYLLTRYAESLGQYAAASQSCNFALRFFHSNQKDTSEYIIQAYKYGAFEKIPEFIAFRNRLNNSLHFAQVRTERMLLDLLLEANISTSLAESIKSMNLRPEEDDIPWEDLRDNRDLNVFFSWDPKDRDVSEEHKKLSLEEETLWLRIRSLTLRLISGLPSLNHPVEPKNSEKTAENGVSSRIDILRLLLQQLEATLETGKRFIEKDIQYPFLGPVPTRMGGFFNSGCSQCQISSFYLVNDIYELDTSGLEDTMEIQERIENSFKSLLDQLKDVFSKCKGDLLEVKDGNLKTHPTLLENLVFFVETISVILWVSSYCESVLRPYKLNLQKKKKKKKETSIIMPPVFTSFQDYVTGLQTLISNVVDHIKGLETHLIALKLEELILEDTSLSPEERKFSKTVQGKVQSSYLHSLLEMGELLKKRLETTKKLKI

| Compound | R value (DMSO/fragment) for probe 1 labeling [1] | R value (DMSO/fragment) for probe 1 labeling [2] | R value (DMSO/fragment) for probe 1 labeling [3] | R value (DMSO/fragment) for probe 1 labeling [4] | R value (DMSO/fragment) for probe 1 labeling [5] | R value (DMSO/fragment) for probe 1 labeling [6] | isoTOP-ABPP reactivity ratio at lysine Q13561_K175 [1] | isoTOP-ABPP reactivity ratio at lysine Q14CX7_K575 [2] | isoTOP-ABPP reactivity ratio at lysine Q14789_K103 [3] | isoTOP-ABPP reactivity ratio at lysine P46734_K93 [4] | isoTOP-ABPP reactivity ratio at lysine P0CG30_K53 [5] | isoTOP-ABPP reactivity ratio at lysine Q7L0Y3_K325 [6] |
| --- | --- | --- | --- | --- | --- | --- | --- | --- | --- | --- | --- | --- |
| O=C(Oc1c(F)c(F)c(F)c(F)c1F)c1cc(C(F)(F)F)cc(C(F)(F)F)c1 [fragment 21, Pentafluorophenyl 3,5-bis(trifluoromethyl)benzoate] | 0.9 | 0.9 | 1.0 | 0.9 | 0.9 | 0.9 |  |  |  |  |  |  |
| Cn1cc(CC(=O)Oc2c(F)c(F)c(F)c(F)c2F)c2ccccc21 [fragment 22, Pentafluorophenyl 2-(1-methyl-1H-indol-3-yl)acetate] | 1.7 | 2.2 | 1.0 | 0.9 | 1.0 | 1.1 |  |  |  |  |  |  |
| O=C(CCc1cn(-c2ccccc2)nc1-c1ccccc1)Oc1ccc([N+](=O)[O-])cc1[N+](=O)[O-] [fragment 29, 2,4-Dinitrophenyl 3-(1,3-diphenyl-1H-pyrazol-4-yl)propanoate] |  |  |  |  |  |  | 1.3 | 1.1 | 1.1 | 0.9 | 0.7 | 0.7 |
| O=C(Oc1ccc([N+](=O)[O-])cc1[N+](=O)[O-])C(c1ccccc1)c1ccccc1 [fragment 30, 2,4-Dinitrophenyl 2,2-diphenylacetate] |  |  |  |  |  |  | 3.4 | 4.7 | 1.4 | 1.4 | 0.6 | 1.1 |
| O=C(Oc1ccc([N+](=O)[O-])cc1[N+](=O)[O-])c1cc(C(F)(F)F)cc(C(F)(F)F)c1 [fragment 31, 2,4-Dinitrophenyl 3,5-bis(trifluoromethyl)benzoate] |  |  |  |  |  |  | 1.0 | 1.2 | 0.9 | 1.2 | 0.8 | 1.1 |
| Cn1cc(CC(=O)Oc2ccc([N+](=O)[O-])cc2[N+](=O)[O-])c2ccccc21 [fragment 32, 2,4-Dinitrophenyl 2-(1-methyl-1H-indol-3-yl)acetate] |  |  |  |  |  |  | 4.4 | 2.4 | 7.0 | 1.4 | 0.8 | 1.0 |
| COc1cc(CCC(=O)Oc2ccc([N+](=O)[O-])cc2[N+](=O)[O-])cc(OC)c1OC [fragment 33, 2,4-Dinitrophenyl 3-(3,4,5-trimethoxyphenyl)propanoate] |  |  |  |  |  |  | 1.6 | 1.1 | 1.0 | 0.9 | 0.5 | 0.9 |
